Reference: paper PMC8859269, “Lichenysin Production by Bacillus licheniformis Food Isolates and Toxicity to Human Cells” (Frontiers in Microbiology, 2022)
≈ marks a conversion by molar mass, not a printed value. Entries after “also recorded” stand apart in the source; their conditions may differ. Where two headings read alike, the source gives them in different places. Numbered stars: 1 amine (or outer) side, 2 acyl side, 3 side chain; on linkers, the order of the positions; unused ones are H or OH. Bridge positions count the residues as written; N and C are the ends. Square brackets hold non-standard residues; d marks the D form. Peptide text beside a SMILES is read from it. X2 = CC(C)CCCCCCCCC[C@H](CC(=O)[*:1])O[*:2]

Experiments:
[1] = system: pig ileum organoids; experiment: alamarBlue cytotoxicity assay, pig ileum organoids; format: cell-based; conditions: 200 μM, 72 h
Protocol: (§1) To perform cytotoxicity assay, two batches of concentrated lichenysin were prepared from biomass grown on LB agar plates as described in section “Extraction of Lichenysin From Biomass Collected From Surface Growth on LB Agar and Skimmed Milk Agar.” Instead of using 150 mg biomass, lichenysin was extracted from 6.5 g of biomass from strain B4123, and dissolved in a final volume of 300 μl methanol. A small aliquot of 1 μl was taken to determine the concentration of the concentrated lichenysin extract via Reversed-Phase High-Performance Liquid Chromatography – Electro Spray Ionization Mass Spectrometry (RP-HPLC-ESI-MS). […]
(§2) The alamarBlue (Thermo Fischer Scientific) fluorometric assay was used to examine the cytotoxicity of lichenysin and surfactin toward two human cell lineages (HEK293, Caco-2) and ileum organoids from pigs. Culturing medium DMEM with Alamar blue (i.e., a no-cells control) and cells exposed to 10% DMSO were used to correct for background fluorescence and cell death, respectively. […]
(§3) The alamarBlue assay was performed as described in [Burczynski et al. (2000)], [Hamid et al. (2004)], and [Rampersad (2012)]. […] The fluorescence at the emission wavelength of 590 nm was measured with a SpectraMax M5 (Molecular Devices, San Jose, CA, United States) and expressed as relative fluorescence units. […]
(§4) The cell viability (%) was calculated by using the formula: […]

[2] = alamarBlue cytotoxicity assay, pig ileum organoids; format: cell-based; conditions: 72 h exposure, alamarBlue, read-out: IC50 (cytotoxic level)
Protocol: as §1, §2, §3, §4

[3] = alamarBlue cytotoxicity assay, Caco-2 cells; format: cell-based, human; conditions: human, Caco-2, 72 h exposure, alamarBlue; read-out: IC50 (cytotoxic level)
Protocol: (§5) To perform cytotoxicity assay, two batches of concentrated lichenysin were prepared from biomass grown on LB agar plates as described in section “Extraction of Lichenysin From Biomass Collected From Surface Growth on LB Agar and Skimmed Milk Agar.” Instead of using 150 mg biomass, lichenysin was extracted from 6.5 g of biomass from strain B4123, and dissolved in a final volume of 300 μl methanol. A small aliquot of 1 μl was taken to determine the concentration of the concentrated lichenysin extract via Reversed-Phase High-Performance Liquid Chromatography – Electro Spray Ionization Mass Spectrometry (RP-HPLC-ESI-MS). The remaining concentrated extract was entirely evaporated under a flow of nitrogen at 40°C in a heating block. The dry residue was resuspended in either 99% Dimethyl Sulfoxide (DMSO) or Dulbecco’s Modified Eagle Medium (DMEM; Gibco, Thermo Fischer Scientific, Bleiswijk, Netherlands) without phenol red serum or antibiotics. Surfactin (purchased from Merck) was also used in cytotoxicity assays by dissolving 10 mg in 1 ml of distilled water (10 mM) (with an adjusted pH of ∼11.7 to obtain full solubility). Both lichenysin and surfactin were diluted to the desired concentration in DMEM medium without phenol red, serum and antibiotics before adding to the cells.
(§6) Human Embryonic Kidney (HEK293) cells were obtained from Invivogen (San Diego, CA, United States), and Caco-2 human intestinal epithelial cells (ATCC HTB-37) were purchased from the American Type Culture Collection (Manassas, VA, United States). Both cell lines were maintained in DMEM medium containing 10 % Fetal Bovine Serum (FBS) (Thermo Fischer Scientific) and 1 % penicillin/streptomycin (Merck) to attain a confluent growth. The grown HEK293 and Caco-2 cells were seeded and suspended at a final concentration of 2 × 10^5 cells/ml (in 200 μl) in 96 wells-plates (Greiner). […]
as §2
(§7) The alamarBlue assay was performed as described in [Burczynski et al. (2000)], [Hamid et al. (2004)], and [Rampersad (2012)]. […] The fluorescence at the emission wavelength of 590 nm was measured with a SpectraMax M5 (Molecular Devices, San Jose, CA, United States) and expressed as relative fluorescence units. The average fluorescence of the no-cells control was used to normalize all recorded fluorescence emission values.
as §4

[4] = system: Caco-2 human intestinal epithelial cells; experiment: alamarBlue cytotoxicity assay, Caco-2 cells; format: cell-based; conditions: Homo sapiens, Caco-2, 72 h
Protocol: as §5, §6, §2, §7, §4

[5] = alamarBlue cytotoxicity assay, HEK293 cells; format: cell-based, human; conditions: human; HEK293, 72 h exposure, alamarBlue; read-out: IC50 (cytotoxic level)
Protocol: as §1, §2, §3, §4

[6] = system: Human Embryonic Kidney (HEK293) cells; experiment: alamarBlue cytotoxicity assay, HEK293 cells; format: cell-based; conditions: HEK293, 200 μM (∼200 μg/ml), exposure for 72 h
Protocol: as §1, §2, §3, §4

## CC(C)CCCCCCCCC[C@@H]1CC(=O)N[C@@H](CCC(=O)O)C(=O)N[C@@H](CC(C)C)C(=O)N[C@H](CC(C)C)C(=O)N[C@@H](C(C)C)C(=O)N[C@@H](CC(=O)O)C(=O)N[C@H](CC(C)C)C(=O)N[C@@H](CC(C)C)C(=O)O1 [Surfactin, cyclo-[Glu^1-Leu^2-Leu^3-Val^4-Asp^5-Leu^6-Leu^7 − − β-OH fatty acid]] (EL[dL]VD[dL]L; linker N-C via X2)
[1]
  toxicity at the highest tested concentration: did not show toxicity; also recorded: no toxicity was seen
[2]
  IC50: > 200 µg/mL
[3]
  IC50: 23.5 µg/mL (≈ 22.7 µM)
[4]; Caco-2, 72 h incubation, read-out: concentration needed to reduce cell viability by 50% (IC50)
  IC50: 23.4 µg/mL
[4]; in log10 scale, read-out: IC50 in log10 scale (converted)
  IC50: 1.37 µM
[4]; read-out: IC50
  IC50: 23.5 µM
[5]
  IC50: > 200 µg/mL
[6]
  toxicity at the highest tested concentration: not toxic
